Reference: patent publication US20230278972A1, “SUBSTITUTED HALOALKYL SULFONANILIDE HERBICIDES” (FMC Corporation, priority 2020, published 2023)

Columns and labels:
Type in all cases: in vivo
[1] = system: Ryegrass, Italian (Italian ryegrass, Lolium multiflorum); assay: Test A preemergence, Ryegrass, Italian; conditions: Preemergence; for Plant response rating, Ryegrass, Italian: 0 to 100 scale (0 no effect, 100 complete control); for Ryegrass, Italian plant response rating: visual injury on 0 to 100 scale (0 no effect, 100 complete control), approximately 10 days
In short: (§1)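 Formulated with a surfactant in a non-phytotoxic solvent, compounds are applied to loam–sand pots, either to bare soil immediately after seeding (preemergence) or to seedlings of 2 to 10 cm bearing one to two leaves (postemergence).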

[2] = system: ragweed (common ragweed, Ambrosia artemisiifolia); assay: Test A preemergence, ragweed; conditions: Preemergence; for Plant response rating, Ragweed: 0 to 100 scale (0 no effect, 100 complete control); for Ragweed plant response rating: visual injury on 0 to 100 scale (0 no effect, 100 complete control), approximately 10 days
In short: as §1

[3] = system: wheat (Triticum aestivum); assay: Test A postemergence, wheat; conditions: Postemergence; for Wheat plant response rating: 500 g ai/ha, visual injury vs untreated controls after approx. 10 days
In short: (§2)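 Barnyardgrass, wheat and galium were treated postemergence at the one- to two-leaf stage (2 to 10 cm) with chemicals formulated in non-phytotoxic solvent plus surfactant, grown in loam soil–sand pots. Pigweed was sown in the same blend and given a preemergence directed soil spray.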

[4] = system: Foxtail, Giant (giant foxtail, Setaria faberi); assay: Test A postemergence, Foxtail, Giant; conditions: Postemergence; for Foxtail, Giant plant response rating: 500 g ai/ha, visual injury vs untreated controls after approx. 10 days
In short: as §1

kochia (Bassia scoparia) [5] = assay: Test A preemergence, kochia; conditions: Preemergence; for Plant response rating, Kochia: 0 to 100 scale (0 no effect, 100 complete control); for Kochia plant response rating: visual injury on 0 to 100 scale (0 no effect, 100 complete control), approximately 10 days
In short: as §1

[6] = system: ragweed (common ragweed, Ambrosia artemisiifolia); assay: Test A postemergence, ragweed; conditions: Postemergence; for Ragweed plant response rating: 500 g ai/ha, visual injury vs untreated controls after approx. 10 days
In short: as §1

[7] = system: barnyardgrass (Echinochloa crus-galli); assay: Test A postemergence, barnyardgrass; conditions: Postemergence; for Barnyardgrass plant response rating: 500 g ai/ha, visual injury vs untreated controls after approx. 10 days
In short: as §2

[8] = system: blackgrass (Alopecurus myosuroides); assay: Test A postemergence, blackgrass; conditions: Postemergence; for Blackgrass plant response rating: 500 g ai/ha, visual injury vs untreated controls after approx. 10 days
In short: as §1

[9] = system: Foxtail, Giant (giant foxtail, Setaria faberi); assay: Test A preemergence, Foxtail, Giant; conditions: Preemergence; for Plant response rating, Foxtail, Giant: 0 to 100 scale (0 no effect, 100 complete control); for Foxtail, Giant plant response rating: visual injury on 0 to 100 scale (0 no effect, 100 complete control), approximately 10 days
In short: as §1

kochia (Bassia scoparia) [10] = assay: Test A postemergence, kochia; conditions: Postemergence; for Kochia plant response rating: 500 g ai/ha, visual injury vs untreated controls after approx. 10 days
In short: as §1

[11] = system: pigweed (Amaranthus retroflexus); assay: Test A postemergence, pigweed; conditions: Postemergence; for Pigweed plant response rating: 500 g ai/ha, visual injury vs untreated controls after approx. 10 days
In short: as §1

corn (Zea mays) = assay: Test A postemergence, corn; conditions: Postemergence; for Corn plant response rating: 500 g ai/ha, visual injury vs untreated controls after approx. 10 days
In short: as §1

[12] = system: barnyardgrass (Echinochloa crus-galli); assay: Test A preemergence, barnyardgrass; conditions: Preemergence; for Plant response rating, Barnyardgrass: 0 to 100 scale (0 no effect, 100 complete control); for Barnyardgrass plant response rating: visual injury on 0 to 100 scale (0 no effect, 100 complete control), approximately 10 days
In short: as §1

[13] = system: Ryegrass, Italian (Italian ryegrass, Lolium multiflorum); assay: Test A postemergence, Ryegrass, Italian; conditions: Postemergence; for Ryegrass, Italian plant response rating: 500 g ai/ha, visual injury vs untreated controls after approx. 10 days
In short: as §1

[14] = system: galium (catchweed bedstraw, Galium aparine); assay: Test A postemergence, galium; conditions: Postemergence; for Galium plant response rating: 500 g ai/ha, visual injury vs untreated controls after approx. 10 days
In short: as §2

[15] = system: pigweed (Amaranthus retroflexus); assay: Test A preemergence, pigweed; conditions: for Plant response rating, Pigweed: 0 to 100 scale (0 no effect, 100 complete control); for Pigweed plant response rating: visual injury on 0 to 100 scale (0 no effect, 100 complete control), approximately 10 days
In short: as §2

[16] = 31 g ai/ha, visual injury, approx. 10 days
[17] = 31 g ai/ha, visual injury on 0 to 100 scale (0 no effect, 100 complete control), approx. 10 days
[18] = 125 g ai/ha, 0 to 100 scale (0 no effect, 100 complete control)
[19] = 0 to 100 scale (0 no effect, 100 complete control)
[20] = 125 g ai/ha, visual injury, approx. 10 days

Cc1cc(C)c(N(S(=O)(=O)C(F)(F)F)S(=O)(=O)C(F)(F)F)cc1C(=O)N1CCC(C#N)CC1 [Compound 161]
100: Ryegrass, Italian plant response rating ([1]; 125 g ai/ha) | Barnyardgrass plant response rating ([12]; 125 g ai/ha) | Pigweed plant response rating ([15]; 125 g ai/ha)
0: Plant response rating, Wheat [3, 17] | Plant response rating, Wheat [3, 18] | Plant response rating, Foxtail, Giant [4, 17] | Plant response rating, Blackgrass [8, 17] | Plant response rating, Blackgrass [8, 18]
40: Plant response rating, Ragweed [6, 17] | Plant response rating, Barnyardgrass [7, 17] | Plant response rating, Foxtail, Giant [9, 16]
70: Plant response rating, Ryegrass, Italian [1, 16] | Plant response rating, Ragweed [6, 18] | Plant response rating, Pigweed [11, 17] | Plant response rating, Pigweed [15, 16]
80: Plant response rating, Barnyardgrass [7, 18] | Foxtail, Giant plant response rating ([9]; 125 g ai/ha) | Plant response rating, Pigweed [11, 18]
30: Plant response rating, Kochia (kochia (Bassia scoparia) [5]; [16]) | Plant response rating, Galium [14, 17]
10: Plant response rating, Kochia (kochia (Bassia scoparia) [10]; [17]) | Plant response rating, Corn (corn (Zea mays); [17])
90: Plant response rating, Ragweed [2, 16] | Ragweed plant response rating ([2]; 125 g ai/ha) | Kochia plant response rating (kochia (Bassia scoparia) [5]; 125 g ai/ha) | Plant response rating, Galium [14, 18]
50: Plant response rating, Kochia (kochia (Bassia scoparia) [10]; [18]) | Plant response rating, Corn (corn (Zea mays); [18])
20: Plant response rating, Foxtail, Giant [4, 18] | Plant response rating, Barnyardgrass [12, 16] | Plant response rating, Ryegrass, Italian [13, 17] | Plant response rating, Ryegrass, Italian [13, 18]

Cc1cc(C)c(C2=NOC3(CCC(C)(C)CC3)C2)cc1NS(=O)(=O)C(F)(F)F [Compound 163]
80: Ryegrass, Italian plant response rating ([1]; 125 g ai/ha) | Plant response rating, Kochia (kochia (Bassia scoparia) [5]; 500 g ai/ha) | Barnyardgrass plant response rating [7, 19] | Pigweed plant response rating [11, 19]
0: Plant response rating, Wheat [3, 18] | Wheat plant response rating [3, 19] | Plant response rating, Foxtail, Giant [4, 18] | Kochia plant response rating (kochia (Bassia scoparia) [5]; 125 g ai/ha) | Plant response rating, Ragweed [6, 18] | Plant response rating, Barnyardgrass [7, 18] | Plant response rating, Corn (corn (Zea mays); [18]) | Plant response rating, Ryegrass, Italian [13, 18]
60: Plant response rating, Ragweed ([2]; 500 g ai/ha) | Kochia plant response rating (kochia (Bassia scoparia) [10]; [19]) | Plant response rating, Pigweed [11, 18] | Corn plant response rating (corn (Zea mays); [19])
90: Plant response rating, Foxtail, Giant ([9]; 500 g ai/ha) | Barnyardgrass plant response rating ([12]; 125 g ai/ha) | Galium plant response rating [14, 19]
70: Plant response rating, Galium [14, 18]
100: Plant response rating, Ryegrass, Italian ([1]; 500 g ai/ha) | Plant response rating, Barnyardgrass ([12]; 500 g ai/ha) | Plant response rating, Pigweed ([15]; 500 g ai/ha)
10: Foxtail, Giant plant response rating [4, 19] | Plant response rating, Kochia (kochia (Bassia scoparia) [10]; [18])
20: Ragweed plant response rating ([2]; 125 g ai/ha) | Plant response rating, Blackgrass [8, 18]
30: Ragweed plant response rating [6, 19] | Blackgrass plant response rating [8, 19] | Ryegrass, Italian plant response rating [13, 19]
50: Foxtail, Giant plant response rating ([9]; 125 g ai/ha) | Pigweed plant response rating ([15]; 125 g ai/ha)

Cc1cc(Cl)c(NS(=O)(=O)C(F)(F)F)cc1C1=NOC2(CCCC2)C1 [Compound 204]
60: Foxtail, Giant plant response rating [4, 19]
30: Plant response rating, Kochia (kochia (Bassia scoparia) [10]; [18])
10: Plant response rating, Ragweed [2, 20] | Plant response rating, Foxtail, Giant [4, 18] | Plant response rating, Corn (corn (Zea mays); [18])
0: Plant response rating, Barnyardgrass [7, 18] | Plant response rating, Blackgrass [8, 18]
100: Plant response rating, Ryegrass, Italian ([1]; 500 g ai/ha) | Plant response rating, Foxtail, Giant ([9]; 500 g ai/ha) | Plant response rating, Pigweed ([15]; 500 g ai/ha)
80: Ragweed plant response rating [6, 19] | Barnyardgrass plant response rating [7, 19] | Plant response rating, Foxtail, Giant [9, 20] | Galium plant response rating [14, 19]
20: Plant response rating, Ragweed [6, 18] | Plant response rating, Pigweed [11, 18]
70: Wheat plant response rating [3, 19] | Kochia plant response rating (kochia (Bassia scoparia) [10]; [19]) | Pigweed plant response rating [11, 19]
90: Plant response rating, Ryegrass, Italian [1, 20] | Plant response rating, Ragweed ([2]; 500 g ai/ha) | Plant response rating, Kochia (kochia (Bassia scoparia) [5]; 500 g ai/ha) | Plant response rating, Barnyardgrass [12, 20] | Plant response rating, Barnyardgrass ([12]; 500 g ai/ha) | Plant response rating, Pigweed [15, 20]
50: Plant response rating, Wheat [3, 18] | Corn plant response rating (corn (Zea mays); [19]) | Ryegrass, Italian plant response rating [13, 19] | Plant response rating, Galium [14, 18]
40: Plant response rating, Kochia (kochia (Bassia scoparia) [5]; [20]) | Blackgrass plant response rating [8, 19] | Plant response rating, Ryegrass, Italian [13, 18]
